Reference: article PMC10377513, “Goldilocks Dilemma: LPS Works Both as the Initial Target and a Barrier for the Antimicrobial Action of Cationic AMPs on E. coli” (Biomolecules, 2023)
Converted amounts (≈) assume the structure as drawn. Residues, ends and D or L forms follow the SMILES beside them.

Experiments:
S. aureus ATCC 9144 = details: CLSI guidelines, MHBII; cited from earlier work
Procedure: Table 1 MIC and ζ potentials for the tested peptides against P. aeruginosa, S. aureus, and the three E. coli strains: ATCC 25922, LPS deficient—NR 698, and colistin-resistant CCUG 70662, which was tested after cultivation with (+) and without (−) 4 µg/mL of colistin, which caused a decrease of negative charge of the cell wall. MIC values for P. aeruginosa, S. aureus, and E. coli ATCC 25922 are rep | column: MIC (µg/mL) / S. aureus ATCC 9144

E. coli CCUG 70662 = test system: E. coli CCUG 70662
Procedure: (§1) The bacterial strains tested were E. coli ATCC 25922, E. coli […], and E. coli NR-698. The MIC assays followed the CLSI guidelines. Overnight cultures and MIC assays were performed in MHBII (212322, Becton, Dickson and Company, Sparks, MD, USA). In addition, E. coli […] was tested after cultivation with 4 µg/mL of colistin to induce alternation in surface charge.
(§2) The antimicrobial activity of the five cyclic cationic AMPs was determined against S. aureus, P. aeruginosa, and three strains of E. coli: ATCC 25922, LPS colistin-resistant strain CCUG 70662, and LPS deficient strain NR 698 (Table 1). CCUG 70662 was cultivated in two conditions, both in the absence (−) and in the presence (+) of colistin (4 µg/mL). Resistance development can be monitored by measuring changes in the ζ-potential, reflecting the overall charge of the bacteria. […] In the NR 698 strain, translocation of LPS from the periplasmic space to the outer leaflet is hindered.

E. coli NR 698 = details: LPS deficient strain; CLSI guidelines, MHBII
Procedure: as §1, §2

E. coli ATCC 25922 = details: CLSI guidelines, MHBII; cited from earlier work
Procedure: Table 1 MIC and ζ potentials for the tested peptides against P. aeruginosa, S. aureus, and the three E. coli strains: ATCC 25922, LPS deficient—NR 698, and colistin-resistant CCUG 70662, which was tested after cultivation with (+) and without (−) 4 µg/mL of colistin, which caused a decrease of negative charge of the cell wall. MIC values for P. aeruginosa, S. aureus, and E. coli ATCC 25922 are rep | column: MIC (µg/mL) / E. coli ATCC 25922

P. aeruginosa ATCC 27853 = details: CLSI guidelines, MHBII; cited from earlier work
Procedure: Table 1 MIC and ζ potentials for the tested peptides against P. aeruginosa, S. aureus, and the three E. coli strains: ATCC 25922, LPS deficient—NR 698, and colistin-resistant CCUG 70662, which was tested after cultivation with (+) and without (−) 4 µg/mL of colistin, which caused a decrease of negative charge of the cell wall. MIC values for P. aeruginosa, S. aureus, and E. coli ATCC 25922 are rep | column: MIC (µg/mL) / P. aeruginosa ATCC 27853

[1] = SPR, L1 chip, Biacore T200, room temperature, DMPC liposomes, 10 mM HEPES pH 7.4, 150 mM NaCl, steady-state fit; cited from earlier work
Excerpt: Introducing 5% of a negatively charged component (DMPG) to the liposomes doubled the KP of all peptides except c(WKWKWK), where the increase was less substantial.

[2] = SPR partitioning into immobilized liposomes; format: binding, E. coli; details: DMPC liposomes with 10% LPS versus DMPC and DMPC:PG
Procedure: The large unilamellar liposomes of DMPC and DMPC:PG (95:5) were prepared for the SPR experiment using standard methods. In brief, lipid mixtures were weighted from dry powder (Avanti, USA) and dissolved in 3:1 dichloromethane:methanol mixtures. The organic mixture was dried in a vacuum rotavapor to form a lipid film which was hydrated to 20 mM total concentration of lipids (for DMPC and DMPC:PG mixture) by adding 10 mM HEPES buffer pH 7.4 with 150 mM NaCl. For DMPC:LPS mixtures, dried LPS was dissolved in water and mixed with DMPC dissolved in dichloromethane. Isopropanol was added to the mixture until only one phase—dichloromethane:isopropanol:water was formed. Dry film was prepared and then hydrated using the same method as above to a concentration of 18 mM of DMPC and 10% (w/w) LPS in HEPES buffer. […]
The SPR experiments were performed at room temperature using the L1 chip and T200 Biacore instrument (GE Healthcare, Chicago, IL, USA). […] KD was obtained Using Equation (1) from a standard steady-state fit:(1) RU=RUMAX/1+KD/[P]+off, where RU is measured SPR response; RUMAX is RU response during saturation; [P] is peptide concentration; and off is offset of response. […]
SPR is emerging as the method of choice for measuring the partitioning of small compounds into lipid bilayers. […] From the estimated KD and the measured koff values, the association rate kon can be calculated (Equation (5)). […]

Row | SMILES | MIC S. aureus ATCC 9144 (S. aureus ATCC 9144) [µg/mL] | MIC E. coli CCUG 70662+ (E. coli CCUG 70662) [µg/mL] | MIC E. coli CCUG 70662− (E. coli CCUG 70662) [µg/mL] | MIC E. coli NR 698 (E. coli NR 698) [µg/mL] | MIC E. coli ATCC 25922 (E. coli ATCC 25922) [µg/mL] | MIC P. aeruginosa ATCC 27853 (P. aeruginosa ATCC 27853) [µg/mL] | Partitioning constant KP [1] | Increase in KP with DMPC:LPS compared to the DMPC and DMPC:PG constructs [2]
1 | NCCCC[C@@H]1NC(=O)[C@H](CCCCN)NC(=O)[C@H](Cc2c[nH]c3ccccc23)NC(=O)[C@H](Cc2c[nH]c3ccccc23)NC(=O)[C@H](Cc2c[nH]c3ccccc23)NC(=O)[C@H](CCCCN)NC1=O [c(WWWKKK)] (HELM PEPTIDE1{W.W.W.K.K.K}$PEPTIDE1,PEPTIDE1,1:R1-6:R2$$$V2.0) | 32 (≈ 33.9 µM) | 4 (≈ 4.24 µM) | 4 (≈ 4.24 µM) | 2 (≈ 2.12 µM) | 8 (≈ 8.48 µM) | 32 (≈ 33.9 µM) | – | –
2 | CC(C)C[C@@H]1NC(=O)[C@@H](CCCNC(=N)N)NC(=O)[C@H](CCCCN)NC(=O)[C@H](CC(N)=O)NC(=O)[C@@H](Cc2c[nH]c3ccccc23)NC(=O)[C@H](Cc2c[nH]c3ccccc23)NC1=O [c(LWwNKr)] (HELM PEPTIDE1{L.W.[dW].N.K.[dR]}$PEPTIDE1,PEPTIDE1,1:R1-6:R2$$$V2.0) | >250 | >250 | >250 | 32 (≈ 36.2 µM) | >250 | >250 | 278 | four-fold
3 | N=C(N)NCCC[C@@H]1NC(=O)[C@H](CCCNC(=N)N)NC(=O)[C@H](Cc2c[nH]c3ccccc23)NC(=O)[C@H](Cc2c[nH]c3ccccc23)NC(=O)[C@H](Cc2c[nH]c3ccccc23)NC(=O)[C@H](CCCNC(=N)N)NC1=O [c(WWWRRR)] (HELM PEPTIDE1{W.W.W.R.R.R}$PEPTIDE1,PEPTIDE1,1:R1-6:R2$$$V2.0) | 4 (≈ 3.89 µM) | 8 (≈ 7.79 µM) | 8 (≈ 7.79 µM) | 4 (≈ 3.89 µM) | 8 (≈ 7.79 µM) | 16 (≈ 15.6 µM) | 6649 | –
4 | NCCCC[C@@H]1NC(=O)[C@H](Cc2c[nH]c3ccccc23)NC(=O)[C@H](CCCCN)NC(=O)[C@H](Cc2c[nH]c3ccccc23)NC(=O)[C@H](CCCCN)NC(=O)[C@H](Cc2c[nH]c3ccccc23)NC1=O [c(WKWKWK)] (HELM PEPTIDE1{W.K.W.K.W.K}$PEPTIDE1,PEPTIDE1,1:R1-6:R2$$$V2.0) | 128 (≈ 136 µM) | 64 (≈ 67.9 µM) | 64 (≈ 67.9 µM) | 4 (≈ 4.24 µM) | 64 (≈ 67.9 µM) | >250 | – | –
